According to patent US6043279A, “Compounds having selective activity for retinoid X receptors, and means for modulation of processes mediated by retinoid X receptors” (priority 1997, dated 2000):

Legend:
Type in all cases: cell-based
[1] = target: T1, RXRγ (Mus musculus, UniProt P28705); test: co-transfection (cis-trans) assay in CV-1 cells, RXRγ; conditions: for Emax at 10 µM: CV-1, maximal response relative to all-trans-retinoic acid at 10^-5 M, read-out: Efficacy RXRγ; for EC50: CV-1 cells, luciferase reporter, concentration giving 50% of maximal observed response, read-out: Potency (nM) RXRγ
T1 construct: expressed in transfected cells; host or cells: CV-1 (monkey kidney)
T1 sequence (P28705 1-463): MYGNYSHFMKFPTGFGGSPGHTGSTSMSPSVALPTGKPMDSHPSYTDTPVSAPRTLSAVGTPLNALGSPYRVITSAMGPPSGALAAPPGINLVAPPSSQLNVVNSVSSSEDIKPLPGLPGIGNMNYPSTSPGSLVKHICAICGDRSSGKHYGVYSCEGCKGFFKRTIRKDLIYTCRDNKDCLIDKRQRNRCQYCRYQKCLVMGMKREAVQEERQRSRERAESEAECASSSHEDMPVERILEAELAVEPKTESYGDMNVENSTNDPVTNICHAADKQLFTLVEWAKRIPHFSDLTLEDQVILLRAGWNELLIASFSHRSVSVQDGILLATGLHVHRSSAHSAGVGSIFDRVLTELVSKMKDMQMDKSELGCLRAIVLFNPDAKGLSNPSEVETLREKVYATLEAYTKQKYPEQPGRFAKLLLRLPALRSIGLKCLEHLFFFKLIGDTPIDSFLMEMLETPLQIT
Text: (§1) The co-transfection assay provides a mechanism to evaluate the ability of a compound to modulate the transcription response initiated by an intracellular receptor. […] Berger et al., J. Steroid Biochem. Molec.
(§2) Briefly, the co-transfection assay involves the introduction of two plasmids by transient transfection into a retinoid receptor-negative mammalian cell background. The first plasmid contains a retinoid receptor cDNA and directs constitutive expression of the encoded receptor. The second plasmid contains a cDNA that encodes for a readily quantifiable protein, e.g., firefly luciferase or chloramphenicol acetyl transferase (CAT), under control of a promoter containing a retinoid acid response element, which confers retinoid dependence on the transcription of the reporter. In this co-transfection assay, all retinoid receptors respond to all-trans-retinoic acid in a similar fashion. This assay can be used to accurately measure efficacy and potency of retinoic acid and synthetic retinoids as ligands that interact with the individual retinoid receptor subtypes.
(§3) Accordingly, synthetic retinoid compounds of the current invention were evaluated for their interaction with retinoid receptor subtypes using the co-transfection assay in which CV-1 cells were co-transfected with one of the retinoid receptor subtypes, a reporter construct, and an internal control to allow normalization of the response for transfection efficiency. The following example is illustrative.
(§4) Retinoids: All-trans-retinoic acid (RA) and 13-cis-retinoic acid (13-cis-RA) were obtained from Sigma. […] Retinoids were dissolved in dimethylsulfoxide for use in the transcriptional activation assays.
(§5) Co-transfection Assay In CV-1 Cells: A monkey kidney cell line, CV-1, was used in the cis-trans assay. Cells were transfected with two plasmids. […] The cis-vector contains an easily assayable gene product, in this case the firefly luciferase, coupled to a retinoid-responsive promoter, i.e., an RARE or RXRE. Addition of retinoic acid or an appropriate synthetic retinoid results in the formation of a retinoid-RAR or -RXR complex that activates the expression of luciferase gene, causing light to be emitted from cell extracts. The level of luciferase activity is directly proportional to the effectiveness of the retinoid-receptor complex in activating gene expression. This sensitive and reproducible co-transfection approach permits the identification of retinoids that interact with the different receptor isoforms.
(§6) Cells were cultured in DMEM supplemented with 10% charcoal resin-stripped fetal bovine serum, and experiments were conducted in 96-well plates. […] Cells were transfected for 6 h and then washed to remove the precipitate. The cells were then incubated for 36 h with or without retinoid. […]

[2] = target: T2, RARγ (Homo sapiens, UniProt P13631); test: co-transfection (cis-trans) assay in CV-1 cells, RARγ; conditions: for Emax: CV-1, maximal response relative to all-trans-retinoic acid at 10^-5 M, read-out: Efficacy RARγ; for EC50: CV-1 cells, luciferase reporter, concentration giving 50% of maximal observed response, read-out: Potency (nM) RARγ
T2 construct: expressed in transfected cells; host or cells: CV-1 (monkey kidney)
T2 sequence (P13631 1-454): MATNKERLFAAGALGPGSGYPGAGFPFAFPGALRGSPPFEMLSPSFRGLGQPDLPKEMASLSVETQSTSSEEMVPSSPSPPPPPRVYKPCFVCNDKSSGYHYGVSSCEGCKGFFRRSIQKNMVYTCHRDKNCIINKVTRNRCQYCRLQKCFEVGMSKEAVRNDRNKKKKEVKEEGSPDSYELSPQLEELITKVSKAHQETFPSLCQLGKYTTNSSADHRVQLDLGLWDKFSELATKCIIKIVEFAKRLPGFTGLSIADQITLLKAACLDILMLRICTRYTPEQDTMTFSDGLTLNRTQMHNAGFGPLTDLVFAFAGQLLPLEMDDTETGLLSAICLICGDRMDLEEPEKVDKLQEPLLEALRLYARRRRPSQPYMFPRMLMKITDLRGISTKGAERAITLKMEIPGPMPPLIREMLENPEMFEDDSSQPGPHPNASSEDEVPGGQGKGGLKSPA
Text: as §1, §2, §3, §4, §5, §6

[3] = target: T3, RXRα (Homo sapiens, UniProt P19793); test: co-transfection (cis-trans) assay in CV-1 cells, RXRα; conditions: for Emax: CV-1, maximal response relative to all-trans-retinoic acid at 10^-5 M, read-out: Efficacy RXRα; for EC50: CV-1 cells, luciferase reporter, concentration giving 50% of maximal observed response, read-out: Potency (nM) RXRα
T3 construct: expressed in transfected cells; host or cells: CV-1 (monkey kidney)
T3 sequence (P19793 1-462): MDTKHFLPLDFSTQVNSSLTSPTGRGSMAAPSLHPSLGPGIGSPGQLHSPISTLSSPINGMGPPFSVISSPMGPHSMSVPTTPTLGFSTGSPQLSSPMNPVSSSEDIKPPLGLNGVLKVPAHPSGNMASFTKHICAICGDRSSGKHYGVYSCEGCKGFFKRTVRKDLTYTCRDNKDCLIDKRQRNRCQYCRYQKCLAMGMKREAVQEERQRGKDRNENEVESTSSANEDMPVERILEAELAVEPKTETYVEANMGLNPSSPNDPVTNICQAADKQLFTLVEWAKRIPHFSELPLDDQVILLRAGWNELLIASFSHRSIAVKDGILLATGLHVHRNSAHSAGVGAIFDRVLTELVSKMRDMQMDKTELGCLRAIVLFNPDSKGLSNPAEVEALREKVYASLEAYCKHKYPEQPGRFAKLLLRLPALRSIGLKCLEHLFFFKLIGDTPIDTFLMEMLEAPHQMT
Text: as §1, §2, §3, §4, §5, §6

| SMILES | Emax at 10 µM [1] [%] | EC50 [1] [nM] | Emax [2] [%] | EC50 [2] [nM] | Emax [3] [%] | EC50 [3] [nM] |
| --- | --- | --- | --- | --- | --- | --- |
| Cc1cc(C(C)(C)C)ccc1C(=NO)c1ccc(C(=O)O)cc1 [Compound 137, 4-[(2-methyl-4-t-butylphenyl)carbonyl]benzoic acid oxime] | 50 | 190 | < 2 | > 10000 | 47 | 270 |
| C=C(c1ccc(C(=O)O)cc1)c1ccc(C(C)(C)C)cc1C [Compound 133, 4-[1-(2-methyl-4-t-butylphenyl)ethenyl]benzoic acid] | 91 | 290 | < 2 | > 10000 | 86 | 440 |
